# Laboratory results from patent publication US12077503B2, “Substituted cyclic amides and their use as herbicides” (FMC CORPORATION, priority 2015, dated 2024).
# What was measured:
# Format in all cases: in vivo
# [1] = system: ivy-leaved morning glory (Ipomoea hederacea); experiment: Test G Pre-Emergence Protocol; conditions: Ipomoea, pre-emergence, 312 h, evaluated after 13 days
# Outline: (§1)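 Spraying took place one day after sowing, at 15.625, 62.5 or 250 g/ha, using an acetone/water (50:50) spray solution containing 0.5% Tween 20. Plants were kept under glasshouse conditions (24/16 °C, 14 h light, 65% humidity, watered twice daily), and injury was rated 0–100 at day 13.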
# [2] = system: barnyardgrass (Echinochloa crus-galli); experiment: Test G Pre-Emergence Protocol; conditions: Echinochloa crus-galli, pre-emergence, 312 h, evaluated after 13 days
# Outline: as §1
# [3] = system: giant foxtail (Setaria faberi); experiment: Test G Pre-Emergence Protocol; conditions: Setaria faberi, pre-emergence, 312 h, evaluated after 13 days
# Outline: as §1
# corn (Zea mays) [4] = experiment: Test G Pre-Emergence Protocol; conditions: Zea mays, pre-emergence, 312 h, evaluated after 13 days
# Outline: as §1
# [5] = system: redroot pigweed (Amaranthus retroflexus); experiment: Test G Pre-Emergence Protocol; conditions: Amaranthus retroflexus, pre-emergence, 312 h, evaluated after 13 days
# Outline: as §1
# [6] = system: velvetleaf (Abutilon theophrasti); experiment: Test G Pre-Emergence Protocol; conditions: Abutilon theophrasti, pre-emergence, 312 h, evaluated after 13 days
# Outline: as §1
# [7] = system: ivy-leaved morning glory (Ipomoea hederacea); experiment: Test G Post-Emergence Protocol; conditions: Ipomoea, post-emergence, 312 h, read-out: Morningglory, Ivy-leaved damage rating
# Outline: (§2)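 Post-emergence herbicidal damage, scored visually 0–100 at 13 days. Application at 15.625, 62.5 or 250 g/ha onto 8-day-old plants grown under glasshouse control.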
# [8] = system: barnyardgrass (Echinochloa crus-galli); experiment: Test G Post-Emergence Protocol; conditions: Echinochloa crus-galli, post-emergence, 312 h, read-out: Barnyardgrass damage rating
# Outline: as §2
# [9] = system: giant foxtail (Setaria faberi); experiment: Test G Post-Emergence Protocol; conditions: Setaria faberi, post-emergence, 312 h, read-out: Foxtail, Giant damage rating
# Outline: as §2
# corn (Zea mays) [10] = experiment: Test G Post-Emergence Protocol; conditions: Zea mays, post-emergence, 312 h, read-out: Corn damage rating
# Outline: as §2
# [11] = system: redroot pigweed (Amaranthus retroflexus); experiment: Test G Post-Emergence Protocol; conditions: Amaranthus retroflexus, post-emergence, 312 h, read-out: Pigweed, Redroot damage rating
# Outline: as §2
# [12] = system: velvetleaf (Abutilon theophrasti); experiment: Test G Post-Emergence Protocol; conditions: Abutilon theophrasti, post-emergence, 312 h, read-out: Velvetleaf damage rating
# Outline: as §2
# [13] = 15.625 g ai/ha, evaluated after 13 days (100=total damage to plant; 0=no damage to plant)
# [14] = 62.5 g ai/ha, evaluated after 13 days, 100=total damage to plant, 0=no damage to plant
# [15] = 250 g ai/ha, evaluated after 13 days, 100=total damage to plant, 0=no damage to plant
structure (smiles),measurement,setting,value
CN1C[C@@H](c2ccc(CF)cc2)[C@H](C(=O)Nc2cccc(F)c2F)C1=O (racemic) [Compound 1822],pest or weed control at 15.625 g/ha,"[1]; 15.625 g ai/ha, read-out: Morningglory, Ivy-leaved damage rating (100=total damage to plant; 0=no damage to plant)",0%
same,pest or weed control at 62.5 g/ha,"[1]; 62.5 g ai/ha, 100=total damage to plant, 0=no damage to plant, read-out: Morningglory, Ivy-leaved damage rating",20%
same,pest or weed control at 250 g/ha,"[1]; 250 g ai/ha, read-out: Morningglory, Ivy-leaved damage rating (100=total damage to plant; 0=no damage to plant)",80%
same,pest or weed control at 15.625 g/ha,"[2]; 15.625 g ai/ha, read-out: Barnyardgrass damage rating (100=total damage to plant; 0=no damage to plant)",70%
same,pest or weed control at 62.5 g/ha,"[2]; 62.5 g ai/ha, 100=total damage to plant, 0=no damage to plant, read-out: Barnyardgrass damage rating",90%
same,pest or weed control at 250 g/ha,"[2]; 250 g ai/ha, read-out: Barnyardgrass damage rating (100=total damage to plant; 0=no damage to plant)",90%
same,pest or weed control at 15.625 g/ha,"[3]; 15.625 g ai/ha, read-out: Foxtail, Giant damage rating (100=total damage to plant; 0=no damage to plant)",90%
same,pest or weed control at 62.5 g/ha,"[3]; 62.5 g ai/ha, 100=total damage to plant, 0=no damage to plant, read-out: Foxtail, Giant damage rating",90%
same,pest or weed control at 250 g/ha,"[3]; 250 g ai/ha, read-out: Foxtail, Giant damage rating (100=total damage to plant; 0=no damage to plant)",90%
same,plant injury at 15.625 g/ha,"corn (Zea mays) [4]; 15.625 g ai/ha, read-out: Corn damage rating (100=total damage to plant; 0=no damage to plant)",0%
same,plant injury at 62.5 g/ha,"corn (Zea mays) [4]; 62.5 g ai/ha, 100=total damage to plant, 0=no damage to plant, read-out: Corn damage rating",20%
same,plant injury at 250 g/ha,"corn (Zea mays) [4]; 250 g ai/ha, read-out: Corn damage rating (100=total damage to plant; 0=no damage to plant)",70%
same,pest or weed control at 15.625 g/ha,"[5]; 15.625 g ai/ha, read-out: Pigweed, Redroot damage rating (100=total damage to plant; 0=no damage to plant)",0%
same,pest or weed control at 62.5 g/ha,"[5]; 62.5 g ai/ha, 100=total damage to plant, 0=no damage to plant, read-out: Pigweed, Redroot damage rating",60%
same,pest or weed control at 250 g/ha,"[5]; 250 g ai/ha, read-out: Pigweed, Redroot damage rating (100=total damage to plant; 0=no damage to plant)",80%
same,pest or weed control at 15.625 g/ha,"[6]; 15.625 g ai/ha, read-out: Velvetleaf damage rating (100=total damage to plant; 0=no damage to plant)",0%
same,pest or weed control at 62.5 g/ha,"[6]; 62.5 g ai/ha, 100=total damage to plant, 0=no damage to plant, read-out: Velvetleaf damage rating",60%
same,pest or weed control at 250 g/ha,"[6]; 250 g ai/ha, read-out: Velvetleaf damage rating (100=total damage to plant; 0=no damage to plant)",80%
same,pest or weed control at 15.625 g/ha,[7]; [13],20%
same,pest or weed control at 62.5 g/ha,[7]; [14],10%
same,pest or weed control at 250 g/ha,[7]; [15],30%
same,pest or weed control at 15.625 g/ha,[8]; [13],70%
same,pest or weed control at 62.5 g/ha,[8]; [14],80%
same,pest or weed control at 250 g/ha,[8]; [15],80%
same,pest or weed control at 15.625 g/ha,[9]; [13],70%
same,pest or weed control at 62.5 g/ha,[9]; [14],80%
same,pest or weed control at 250 g/ha,[9]; [15],80%
same,plant injury at 15.625 g/ha,corn (Zea mays) [10]; [13],0%
same,plant injury at 62.5 g/ha,corn (Zea mays) [10]; [14],40%
same,plant injury at 250 g/ha,corn (Zea mays) [10]; [15],60%
same,pest or weed control at 15.625 g/ha,[11]; [13],0%
same,pest or weed control at 62.5 g/ha,[11]; [14],10%
same,pest or weed control at 250 g/ha,[11]; [15],30%
same,pest or weed control at 15.625 g/ha,[12]; [13],0%
same,pest or weed control at 62.5 g/ha,[12]; [14],30%
same,pest or weed control at 250 g/ha,[12]; [15],40%
